The target of one assay is SARS-CoV-2 RdRp (Severe acute respiratory syndrome coronavirus 2, UniProt P0DTD1). The following applies: biochemical assays; cited from earlier work.
Assay [1] deals with SARS-CoV-2 in Vero and pulmonary epithelial cell culture. The following applies: in the presence or absence of Ritonavir; cited from earlier work.
Assay [2] concerns the target SARS-CoV-2 exonuclease complex (nsp14/nsp10) (Severe acute respiratory syndrome coronavirus 2, UniProt P0DTD1). Description: Inhibition of SARS-CoV-2 exonuclease, MALDI-TOF MS. The format is biochemical. The conditions noted are these: 30 nM nsp14/nsp10, 37° C., 15 min.
Assay [3] concerns SARS-CoV-2 in Calu-3 lung cells. The conditions noted are these: screen of 1200 drugs; cited from earlier work.
For assay [4], the system named is SARS-CoV-2 infection of human brain organoids. The conditions noted are these: cited from earlier work.
The subject of the next assay is Thermo Sequenase. Description: DNA polymerase extension reaction, MALDI-TOF MS, high fidelity polymerase. The conditions noted are these: 10 µM nucleotide, DNA template and primer.
The target in assay [5] is T1, SARS-CoV-2 RdRp (nsp12, nsp7 and nsp8) (Severe acute respiratory syndrome coronavirus 2, UniProt P0DTD1). The conditions noted are these: kinetic studies of Gordon et al 2020a, b; RDV-TP with MERS-CoV and SARS-CoV-2 RdRps; cited from earlier work.
The target in a further assay is Therminator II (Thermococcus sp., UniProt Q56366, A485L/D141A/E143A/Y409V). The conditions noted are these: 10 µM nucleotide, DNA template and primer, MALDI-TOF MS.
The target in assay [6] is SARS-CoV RdRp (nsp12, nsp7 and nsp8) (Severe acute respiratory syndrome coronavirus, UniProt P0C6X7). It counts as biochemical.
Another assay relates to Therminator IX. The conditions noted are these: 10 µM nucleotide, DNA template and primer, MALDI-TOF MS.
For assay [7], the target named is T1, SARS-CoV-2 RdRp (nsp12, nsp7 and nsp8). The format is biochemical.
Another assay has as its system SARS-CoV-2. The following applies: hamsters; cited from earlier work.

Therminator II, sequence (Q56366 whole entry D141A/E143A/Y409V/A485L): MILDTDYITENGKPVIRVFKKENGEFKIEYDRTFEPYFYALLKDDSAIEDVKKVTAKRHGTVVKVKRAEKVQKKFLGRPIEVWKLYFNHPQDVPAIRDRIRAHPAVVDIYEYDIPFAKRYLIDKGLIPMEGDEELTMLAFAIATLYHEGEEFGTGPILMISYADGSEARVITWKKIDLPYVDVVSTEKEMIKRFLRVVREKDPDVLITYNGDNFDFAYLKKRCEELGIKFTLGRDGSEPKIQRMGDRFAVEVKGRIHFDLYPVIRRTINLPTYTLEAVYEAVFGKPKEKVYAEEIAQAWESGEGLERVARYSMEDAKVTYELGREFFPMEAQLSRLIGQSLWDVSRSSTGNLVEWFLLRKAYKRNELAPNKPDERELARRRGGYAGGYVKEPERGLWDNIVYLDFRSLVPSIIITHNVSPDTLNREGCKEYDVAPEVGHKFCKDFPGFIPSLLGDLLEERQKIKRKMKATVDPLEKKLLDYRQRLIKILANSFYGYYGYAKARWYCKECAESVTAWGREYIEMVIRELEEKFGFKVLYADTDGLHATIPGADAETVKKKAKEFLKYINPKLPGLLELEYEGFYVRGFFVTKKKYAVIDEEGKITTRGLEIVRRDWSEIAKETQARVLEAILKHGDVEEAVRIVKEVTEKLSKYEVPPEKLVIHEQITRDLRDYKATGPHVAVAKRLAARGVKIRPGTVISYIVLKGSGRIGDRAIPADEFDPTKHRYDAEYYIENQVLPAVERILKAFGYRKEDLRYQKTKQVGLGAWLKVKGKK

`Cc1ccc(C(=O)Nc2ccc(S(=O)(=O)O)c3cc(S(=O)(=O)O)cc(S(=O)(=O)O)c23)cc1NC(=O)c1cccc(NC(=O)Nc2cccc(C(=O)Nc3cc(C(=O)Nc4ccc(S(=O)(=O)O)c5cc(S(=O)(=O)O)cc(S(=O)(=O)O)c45)ccc3C)c2)c1` [Suramin]: the “potency relative to Remdesivir” value at SARS-CoV-2 RdRp was 20 ×.
On to `COC(=O)N[C@H](C(=O)N[C@@H](Cc1ccccc1)[C@@H](O)CN(Cc1ccc(-c2ccccn2)cc1)NC(=O)[C@@H](NC(=O)OC)C(C)(C)C)C(C)(C)C` [atazanavir], for which the “inhibition of viral production” value in assay [1] is listed as “inhibits viral production”.
Regarding `COC[C@H]1C[C@@H](c2nc(-c3ccc4c(c3)COc3cc5c(ccc6nc([C@@H]7CC[C@H](C)N7C(=O)[C@@H](NC(=O)OC)C(C)C)[nH]c65)cc3-4)c[nH]2)N(C(=O)[C@H](NC(=O)OC)c2ccccc2)C1` [Velpatasvir], the “inhibition of exonuclease activity” value in [2] (50 µM inhibitor) was “shows inhibition of the exonuclease activity”; in [2] (150 µM inhibitor), “increased inhibition of exonuclease activity”. Moreover, in assay [3], the “synergism with Remdesivir in inhibiting viral production” value is reported as “strongest effects”.
As to `CC(C)OC(=O)[C@H](C)N[P@](=O)(OC[C@H]1O[C@@H](n2ccc(=O)[nH]c2=O)[C@](C)(F)[C@@H]1O)Oc1ccccc1` [Sofosbuvir], the “protection from SARS-CoV-2 infection” value in assay [4] was “protect human brain organoids from SARS-CoV-2 infection”.
On to 2′-fluoro-2′-methyl-UTP [2′-F,Me-UTP], for which the “incorporation and block of further nucleotide incorporation” value in the assay on Thermo Sequenase was “no incorporation”; on Therminator II, “able to be incorporated and block further nucleotide incorporation”; in the assay with Therminator IX, “able to be incorporated and block further nucleotide incorporation”. The “incorporation efficiency relative to the natural nucleotide” value in assay [5] is on record as “lower incorporation efficiency than the natural nucleotide”. For the same compound, the “termination of the polymerase reaction” value in [6] is reported as “permanent terminators”; in assay [7], “single nucleotide (2′-F,Me-UMP) primer extension product”. The incorporation efficiency result in assay [7] is “efficient substrates of the RdRp”.
On to `Cc1cn([C@H]2C[C@H](O)[C@@H](COP(=O)(O)OP(=O)(O)OP(=O)(O)O)O2)c(=O)[nH]c1=O` [dTTP], for which the “incorporation and block of further nucleotide incorporation” value in the assay with Thermo Sequenase, on Therminator II and with Therminator IX was “incorporation continued past the first A in the template” each time.
On to `CNC(=C[N+](=O)[O-])NCCSCc1ccc(CN(C)C)o1.O=C([O-])CC(O)(CC(=O)[O-])C(=O)[O-].[Bi+3]` [Ranitidine bismuth citrate], for which, in the assay on SARS-CoV-2, the “viral loads in the respiratory tract” value is given as “decrease viral loads in the respiratory tract of hamsters”.
